Laboratory results: patent US10357533B2, “Drug for the effective control of acute and or chronic pain and a method for its administration” (PVP LABS PTE. LTD., priority 2016, dated 2019)
Like-named read-outs stand apart in the source and are kept apart here. [ ]: non-standard residue; d: D form. Sar = CNCC(=O)O

Columns and labels:
[1] = biological target: opioid μ-receptors located on GPI (Cavia porcellus, UniProt A0ACM8Q262); assay: Inhibition of electrically stimulated contractions of isolated guinea pig ileum (GPI); assay type: cell-based; design: amplitude: unit not given here
opioid μ-receptors located on GPI, sequence (A0ACM8Q262 1-400): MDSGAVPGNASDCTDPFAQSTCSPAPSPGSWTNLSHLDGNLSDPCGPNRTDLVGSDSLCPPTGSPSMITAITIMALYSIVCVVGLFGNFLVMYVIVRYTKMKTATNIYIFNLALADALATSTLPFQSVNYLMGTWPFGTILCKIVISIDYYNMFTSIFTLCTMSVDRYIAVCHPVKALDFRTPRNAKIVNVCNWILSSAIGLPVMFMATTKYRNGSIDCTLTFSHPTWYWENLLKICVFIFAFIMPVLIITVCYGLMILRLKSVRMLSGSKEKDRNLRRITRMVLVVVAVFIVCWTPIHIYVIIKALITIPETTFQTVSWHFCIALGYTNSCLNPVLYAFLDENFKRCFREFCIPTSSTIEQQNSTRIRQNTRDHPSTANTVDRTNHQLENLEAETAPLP
Method: Effect was assessed by ability to inhibit the contraction caused by electrical stimulation of isolated organs—guinea pig ileum (GPI). Work was carried out on a special apparatus for testing substances for opioid activity on the model of guinea pig ileum. GPI, taken from nonlinear animals were placed in a 10 ml volumetric flask with electrodes inserted containing Krebs solution at 34° C. in a water bath (HOECHST Organbad, Germany) with a thermostat for maintaining a constant temperature in the working cell. The lower end of the GPI is fixed to the vessel at the bottom. The upper end of the ligature was attached to the sensor strength registration device (sensors isometric registration K-30, “Hugo Sachs Elektronik KG”, Germany). The initial tension of the organs was 1 gram. The solution with placed in GPI was being constantly aerated. GPI segments were equilibrated in the Krebs solution for one hour.
GPI contractions were stimulated by plate electrodes with electrical impulses in a series of four rectangular pulses each lasting 0.5 ms and with 1.5 ms intervals, with delays at 7.5 sec. between the series and voltage 80V using a generator of electric impulses (type 215/I, Hugo Sachs Elektronik, Germany). Registration was performed in isometric contraction mode using K30 sensors via two channel amplifiers MS 6601 (“Watanabe”, Japan).
At the beginning stimulation was applied for a minimum of 45 minutes, which allowed reproducible responses to be established.
The tested substance was administered in a solution bathing the organs in a volume of 0.005 to 0.015 ml, to final concentrations of 1×10^−9-1×10^−6 M. Each subsequent introduction of the substance was done 1 minute after the previous dose without washing the organs, on a cumulative basis. […] Active substances were expressed on an indicator pD2 (numerically equal to the negative decimal logarithm of the concentration of a substance that causes 50% of the maximum effect). In other words, the potency of the opioid receptor agonists in the absence and presence of the antagonist was assessed as the negative logarithm of the concentration required to cause 50% of the maximum response (pD2) using the logistic equation described by DeLean A. et al.
During the experiment, the change in GPI amplitude contractions was taken into account and was fixed. Parallel monitoring in 4 chambers with GPI segments for each substance was used.

[2] = test system: mice; details: subcutaneously to mice, acute pain, ringer solution; application JPS6054400; cited from earlier work
[3] = test system: mice; details: published data, cited from earlier work
[4] = test system: mice; assay: Acetic acid-induced writhing test in mice; assay type: in vivo; details: for Number of writhings, n (Mean ± SEM): 15 minutes count
Method: The acetic acid-induced writhing test is a model of a chemical nociceptive stimulus applied by the intraperitoneal injection of acetic acid solution.
Intraperitoneal injection of substances that irritate serous membranes in mice induces distinctive movements, including contractions of abdominal muscles followed by muscle relaxation, extension of the hind limbs and curving of the back, known as writhing. Mice were given an intraperitoneal injection of 1% acetic acid at a dose of 0.1 mL per 10 g body weight. After the injection the mice were placed in transparent acrylic chambers and counted the number of writhings in each animal for the next 15 minutes. The analgesic effect was evaluated by a reduction in the number of writhings in mice that received the study drug relative to the control group. […] Writhing onset latency in mice was used as an additional parameter for evaluating the efficacy of the substance in the acetic acid-induced writhing test.

[5] = test system: mice; assay: Open field test and toxicity of high doses in mice; assay type: in vivo; details: open field, 20 EC50 doses (120 mg/kg)
Method: Testing of the influence of the injectable substance based on tetrapeptide (as in example 2) H-Tyr-D-Arg-Phe-Gly-NH2 on the behavior of animals, was provided in the study of the toxicity of high doses of the “open field” test and maintaining balance on a horizontal rod.
The aim of the experiment was to identify an effective dose of the substance that affects the behavior of the animals. It was tested on several animals after administration of different doses of peptide compound.
The experimental and control groups of male mice were taken from the same batch, about the same weight (22-24 g).
The substance was injected intraperitoneally in identical weight amounts to laboratory animals in the experimental and control groups, respectively. […] The measurement was started 15 minutes after injection.
Several groups were organized: without the introduction of the substance, and with the introduction of a solution of morphine or peptide. After 15 from injection we conducted measurement in the following order:
Each animal tested was introduced into a round, not brightly lit arena. The surface is divided into square blocks of 10 cm each. We count locomotor activity of the mouse when it crossed the square. The movement of the mouse in the center of the arena and on the periphery, are recorded separately. We registered the number of times the mouse stands on its hind legs “stand” and the number of times the mouse looks into a “burrow”—ie. holes in the floor. Observations were done visually and were simultaneously entered into a computer using a keyboard (semi-automatic registration).

[6] = test system: rats; assay: Hot plate test in rats; assay type: in vivo; details: for HPL, s (Mean ± SEM): hot plate 52° C.
Method: The “Hot Plate” test is based on the reflex that rat licking its' feet when the animal comes in contact with a hot surface. The device is a metal surface with a diameter of 30 cm whose temperature is controlled by software. The site is enclosed by a transparent fence with a height of 40 cm. The temperature of the metal pad was set at exactly 52° C. When placing the animal on the surface, you measure the time until the moment when the animal licks its' foot. When analgesics are administered, the time before the rat licks its' feet increases. The licking latency (HPL) of 40 seconds was used as the maximum allowable time of stimulation. The study was conducted on male rats weighing 160-180 g, 6 animals per dose.

Row | Compound | amplitude ([1]; concentration 1.0E−09 M) | inhibit. effect ([1]; concentration 1.0E−09 M) | amplitude ([1]; concentration 1.4E−06 M) | inhibit. effect ([1]; concentration 1.4E−06 M) | amplitude ([1]; concentration 1.4E−07 M) | inhibit. effect ([1]; concentration 1.4E−07 M) | amplitude ([1]; concentration 1.4E−08 M) | inhibit. effect ([1]; concentration 1.4E−08 M) | amplitude ([1]; concentration 4.0E−09 M) | inhibit. effect ([1]; concentration 4.0E−09 M) | amplitude ([1]; concentration 4.4E−07 M) | inhibit. effect ([1]; concentration 4.4E−07 M) | amplitude ([1]; concentration 4.4E−08 M) | inhibit. effect ([1]; concentration 4.4E−08 M) | further results
1 | H-Y[dR]F[Sar]-OH [TP2] | 38.2 | 0.0% | 8.6 | 77.5% | 22.0 | 42.4% | 35.3 | 7.6% | 38.2 | 0.0% | 15.2 | 60.2% | 29.7 | 22.2% | –
2 | H-Y[dR]FG-NH2 [TP1] | 38.7 | 0.0% | 9.3 | 76.6% | 23.0 | 41.1% | 36.0 | 7.0% | 38.7 | 0.0% | 15.7 | 61.1% | 30.3 | 22.9% | analgesic action, times the activity of morphine [2]: more than 6 times
3 | CN1CC[C@]23c4c5ccc(O)c4O[C@H]2[C@@H](O)C=C[C@H]3[C@H]1C5 [Morphine, reference compound] | – | – | – | – | – | – | – | – | – | – | – | – | – | – | antinociceptive activity, % of MPE ([3]; dosage 7 mg/kg): 50%; antinociceptive activity, % of MPE ([3]; dosage 10 mg/kg): 75%; antinociceptive activity, % of MPE ([3]; dosage 20 mg/kg): 95%; % of mice w/o writhing ([4]; 1 mg/kg subcutaneous): 14.3%; Number of mice w/o writhing/number of mice in group ([4]; 1 mg/kg subcutaneous): 1/7; Writhing onset latency, s (Mean ± SEM) ([4]; 1 mg/kg subcutaneous): 467.1 ± 74.41 s; Number of writhings, n (Mean ± SEM) ([4]; 1 mg/kg subcutaneous 40 minutes before acetic acid): 12.4 ± 3.73 n; % of mice w/o writhing ([4]; 3 mg/kg subcutaneous): 37.5%; Number of mice w/o writhing/number of mice in group ([4]; 3 mg/kg subcutaneous): 3/8; Writhing onset latency, s (Mean ± SEM) ([4]; 3 mg/kg subcutaneous): 695.0 ± 85.00 s; Number of writhings, n (Mean ± SEM) ([4]; 3 mg/kg subcutaneous 40 minutes before acetic acid): 2.1 ± 0.83 n; physical activity reduced [5]: 50-70%; Proportion of the maximum possible effect (MPE), % ([6]; 5 mg/kg subcutaneous): 68.6%; HPL, s (Mean ± SEM) ([6]; 5 mg/kg subcutaneous): 27.45 ± 4.4 s; Proportion of the maximum possible effect (MPE), % ([6]; 15 mg/kg subcutaneous): 95.7%; HPL, s (Mean ± SEM) ([6]; 15 mg/kg subcutaneous): 38.31 ± 2.63 s
